Laboratory results as given in ChEMBL document CHEMBL1159202, “A furanoid labdane diterpene from Potamogeton nodosus” (1998).

Tests used:
Assay type in all cases: functional
[1] = system: Shigella boydii; assay: Antimicrobial activity against Shigella boydii by disk diffusion method
[2] = system: Bacillus cereus; assay: Antimicrobial activity against Bacillus cereus by disk diffusion method
[3] = system: Enterococcus faecalis; assay: Antimicrobial activity against sStreptococcus faecalis by disk diffusion method
[4] = system: Shigella sonnei; assay: Antimicrobial activity against Shigella sonnei by disk diffusion method
[5] = system: Shigella dysenteriae; assay: Antimicrobial activity against Shigella shigae by disk diffusion method
[6] = system: Bacillus subtilis; assay: Antimicrobial activity against Bacillus subtilis by disk diffusion method
[7] = system: Staphylococcus aureus; assay: Antimicrobial activity against Staphylococcus aureus by disk diffusion method

Structure (SMILES) | inhibition zone (IZ) [1] | inhibition zone (IZ) [2] | inhibition zone (IZ) [3] | inhibition zone (IZ) [4] | inhibition zone (IZ) [5] | inhibition zone (IZ) [6] | inhibition zone (IZ) [7]
C=C1CC[C@H]2[C@@]3(C)CCC[C@]2(C(=O)OC3)[C@H]1CC(=O)c1ccoc1 | 8 mm | 13 mm | 12 mm | 10 mm | 12 mm | 16 mm | 14 mm
C[C@H]1c2cccc(O)c2C(=O)C2=C(O)[C@]3(O)C(=O)C(C(N)=O)=C(O)[C@@H](N(C)C)[C@@H]3[C@@H](O)[C@@H]21.O [DOXYCYCLINE] | 38 mm | 31 mm | 35 mm | 30 mm | 37 mm | 34 mm | 35 mm
